{"source": "patent US20240174645A1", "about": "“COMPOUND, PRODUCTION METHOD THEREFOR, COMPLEX, AND SHORT WAVELENGTH INFRARED FLUORESCENT AGENT” (RIKEN, priority 2021, published 2024)", "test_system": "HeLa cell", "test": "Cytotoxicity test (MTT, cell viability)", "type": "cell-based", "conditions": "HeLa cells, concentrations of 1 nM to 100 nM, cultured for 6 hours, 24 hours, or 48 hours", "experimental": "HeLa cell was seeded on a 96-well plate at 6×10^3 per well and was cultured overnight. Aqueous solutions of the compound 4 at concentrations of 0.1 nM, 1 nM, 10 nM and 100 nM were prepared as test agents, and the test agent at each concentration was added to the well, and HeLa cells were further cultured for 6, 24, and 48 hours. After the culturing for each of the above hours, MTT (3-(4,5-di-methylthiazol-2-yl)-2,5-diphenyltetrazolium bromide) reagent was added to the well, and the resultant product was further cultured for 2 hours.\nAfter the culturing for 2 hours, a solubilizing solution was added to the well, and formazan produced in the living cell was dissolved by pipetting. By sealing the 96-well plate and allowing the resultant product to stand in an incubator overnight at 37° C., formazan was completely solubilized. A plate reader was used to measure 570 nm (formazan dye) and 650 nm (background), and the cell viability of the well to which the test agent of each concentration was added was determined, with the cell viability of a well without the addition of a test agent being 100%.\nCulturing of HeLa cells and determination of cell viability of the well were performed as in the cytotoxicity test for the compound 4, except that a test agent was prepared using the compound 10 instead of the compound 4."}
{"smiles": "CC1(C)C(/C=C/C=C/C=C/C=C/C=C/C=C2/N(CCCCS(=O)(=O)O)c3ccc4ccccc4c3C2(C)C)=[N+](CCCCS(=O)(=O)[O-])c2ccc3ccccc3c21", "note": "[compound 10, ICG-C11]", "values": [{"measurement": "cytotoxicity (cell viability)", "result": "did not exhibit cytotoxicity"}]}
